For 24 compounds, melting point results are on record in patent US20010003121A1, “Novel compounds” (AstraZeneca UK Limited, priority 1997, published 2001).

For `CSc1nc(C)ccc1C(=O)NCC12CC3CC(CC(C3)C1)C2` [Example 49, (2-Methylthio-6-methyl)-N-(tricyclo[3.3.1.1^3,7]dec-1-ylmethyl)-3-pyridine carboxamide], the melting point lay in the range of 160 to 161 °C.

`O=C(O)CCCOc1ccccc1C(=O)NCC12CC3CC(CC(C3)C1)C2` [Example 50, 2-[[(Tricyclo[3.3.1.1^3,7]dec-1-ylmethyl)amino]carbonyl]phenyl-1-oxybutyric acid] returned a melting point of 109 to 113 °C.

As to `O=C(NCC12CC3CC(CC(C3)C1)C2)c1cc(O)ccc1Cl` [Example 51, 2-Chloro-5-hydroxy-N-(tricyclo[3.3.1.1^3,7]dec-1-ylmethyl)-benzamide], the melting point was in the range of 263 to 264 °C.

`O=C(NCC12CC3CC(CC(C3)C1)C2)c1cccc([N+](=O)[O-])c1Cl` [Example 52, 2-Chloro-3-nitro-N-(tricyclo[3.3.1.1^3,7]dec-1-ylmethyl)-benzamide] registered a melting point of 185 °C.

`O=C(NCC12CC3CC(CC(C3)C1)C2)c1cc([N+](=O)[O-])ccc1Cl` [Example 53, 2-Chloro-5-nitro-N-(tricyclo[3.3.1.1^3,7]dec-1-ylmethyl)-benzamide] came in with a melting point of 178 °C.

For the compound `CN(C)CCNc1cccc(C(=O)NCC23CC4CC(CC(C4)C2)C3)c1Cl` [Example 56, 2-Chloro-3-(N,N-dimethylamino)ethylamino-N-(tricyclo[3.3.1.1^3,7]dec-1-ylmethyl)-benzamide], the melting point came to 221 °C.

Turning to `CN(C)CCNc1ccc(Cl)c(C(=O)NCC23CC4CC(CC(C4)C2)C3)c1` [Example 57, 2-Chloro-5-(N,N-dimethylamino)ethylamino-N-(tricyclo[3.3.1.1^3,7]dec-1-ylmethyl)-benzamide], the melting point turned out to be 215 °C.

Turning to `O=C(NCC12CC3CC(CC(C3)C1)C2)c1cccc(O)c1Cl` [Example 59], the melting point was 234 to 235 °C.

Compound `CN(C)CCOc1ccc(Cl)c(C(=O)NCC23CC4CC(CC(C4)C2)C3)c1` [Example 60, 2-Chloro-5-(N,N-dimethylamino)ethyloxy-N-(tricyclo[3.3.1.1^3,7]dec-1-ylmethyl)-benzamide] returned a melting point of 144 to 147 °C.

In turn, `O=C(NCC12CC3CC(CC(C3)C1)C2)c1cc(Cl)ccc1Cl` [Example 61, 2,5-Dichloro-N-(tricyclo[3.3.1.1^3,7]dec-1-ylmethyl)-benzamide] had a melting point of 161 to 162 °C.

For the compound `CNc1ccc(Cl)c(C(=O)NCC23CC4CC(CC(C4)C2)C3)c1` [Example 62, 2-Chloro-5-methylamino-N-(tricyclo[3.3.1.1^3,7]dec-1-ylmethyl)-benzamide], the melting point is 163 to 164 °C.

With `Cc1c(N)cc(N)cc1C(=O)NCC12CC3CC(CC(C3)C1)C2` [Example 66, 3,5-Diamino-2-methyl-N-(tricyclo[3.3.1.1^3,7]dec-1-ylmethyl)-benzamide], the melting point was 220 °C (dec.).

For `COc1cc(OC)c(C)c(C(=O)NCC23CC4CC(CC(C4)C2)C3)c1` [Example 67, 3,5-Dimethoxy-2-methyl-N-(tricyclo[3.3.1.1^3,7]dec-1-ylmethyl)-benzamide], the melting point was in the range of 173 to 175 °C.

On to `COc1cc(OC)cc(C(=O)NCC23CC4CC(CC(C4)C2)C3)c1` [Example 68], for which the melting point lay within 130 to 133 °C.

Turning to `O=C(NCC12CC3CC(CC(C3)C1)C2)c1cc(NCCNCC(O)c2ccccc2)ccc1Cl` (stereo not drawn) [Example 69, 5-(N-(2-Hydroxy-2-phenylethyl)-2-aminoethyl)amino-2-chloro-N-(tricyclo[3.3.1.1^3,7]dec-1-ylmethyl)-benzamide], the melting point lay within 63 to 64 °C.

On to `O=C(NCCC12CC3CC(CC(C3)C1)C2)c1ccccc1Cl` [Example 72, 2-Chloro-N-(2-[tricyclo[3.3.1.1^3,7]dec-1-yl]ethyl)-benzamide], for which the melting point is 125 to 127 °C.

`O=C(NCCC12CC3CC(CC(C3)C1)C2)c1cccc(Cl)c1Cl` [Example 73, 2,3-Dichloro-N-(2-[tricyclo(3.3.1.1^3,7]dec-1-yl]ethyl)-benzamide] came in with a melting point of 158 to 159 °C.

`Nc1ccc(Cl)c(C(=O)NCCC23CC4CC(CC(C4)C2)C3)c1` [Example 74, 5-Amino-2-chloro-N-(2-[tricyclo[3.3.1.1^3,7]dec-1-yl]ethyl)-benzamide] had a melting point of 147 to 149 °C.

`Cc1ccc(C)c(C(=O)NCCC23CC4CC(CC(C4)C2)C3)c1` [Example 75, 2,5-Dimethyl-N-(2-[tricyclo[3.3.1.1^3,7]dec-1-yl]ethyl)-benzamide] registered a melting point of 153 °C.

The compound `O=C(NCC12CC3CC(CC(Cl)(C3)C1)C2)c1ccccc1Cl` [Example 76, 2-Chloro-N-(3-chloro-tricyclo[3.3.1.1^3,7]dec-1-ylmethyl)-benzamide] registered a melting point of 153 °C.

Regarding `O=C(NCC12CC3CC(CC(C3)C1)C2)c1cccc(NCCNCCc2c[nH]cn2)c1Cl` [Example 77, 2-Chloro-3-(N-(2-[imidazoyl-4-yl]ethyl)-2-aminoethyl)amino-N-(tricyclo[3.3.1.1^3,7]dec-1-ylmethyl)-benzamide], the melting point fell in the range of 86 to 87 °C.

Regarding `Cc1ccc(C)c(C(=O)NCC23CC4CC(CC(Cl)(C4)C2)C3)c1` [Example 78, 2,5-Dimethyl-N-(3-chloro-tricyclo[3.3.1.1^3,7]dec-1ylmethyl)-benzamide], the melting point worked out at 155 °C.

Compound `COc1cc(OC)c(C)c(C(=O)NCC23CC4CC(CC(Cl)(C4)C2)C3)c1` [Example 79, 3,5-Dimethoxy-2-methyl-N-(3-chloro-tricyclo[3.3.1.1^3,7]dec-1ylmethyl)-benzamide] registered a melting point of 173 to 175 °C.

In the case of `O=C(NCC12CC3CC(CC(C3)C1)C2)c1cc(I)ccc1Cl` [Example 80, 2-Chloro-5-iodo-N-(tricyclo[3.3.1.1^3,7]dec-1-ylmethyl)-benzamide], the melting point lay within 161.4 to 161.5 °C.
